Assay results from paper PMC11951083, “Highly Specific Miniaturized Fluorescent Monoacylglycerol Lipase Probes Enable Translational Research” (Journal of the American Chemical Society, 2025).
≈ marks a conversion by molar mass, not a printed value. Read-outs that look alike come from different tables or passages of the source.

Key:
[1] = biological target: T1, MAGL (Homo sapiens, UniProt Q99685); assay: Native MS (RapidFire) 2-AG substrate assay, purified human MAGL; format: biochemical; settings: purified human MAGL, native MS substrate assay; IC50 of covalent inhibitors time-dependent; read-out: IC50 hMAGL
T1 sequence (Q99685 1-303): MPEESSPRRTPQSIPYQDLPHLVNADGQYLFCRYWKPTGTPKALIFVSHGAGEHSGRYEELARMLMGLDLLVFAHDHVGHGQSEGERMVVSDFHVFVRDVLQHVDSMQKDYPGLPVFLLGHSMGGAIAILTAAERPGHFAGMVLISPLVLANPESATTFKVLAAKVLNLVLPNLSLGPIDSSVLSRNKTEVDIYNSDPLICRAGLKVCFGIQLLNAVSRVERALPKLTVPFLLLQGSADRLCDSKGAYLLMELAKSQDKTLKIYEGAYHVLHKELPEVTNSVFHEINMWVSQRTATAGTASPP
Procedure: (§1) In vitro MAGL Inhibition Assay
(§2) Compounds were profiled for MAGL inhibitory activity by determining the enzymatic activity by following the hydrolysis of the natural substrate 2-arachidonoylglycerol (2-AG), resulting in arachidonic acid, which can be followed by mass spectrometry. The 2-AG assay was carried out in 384 well assay plates (PP, Greiner Cat# 784201) in a total volume of 20 µL. Compound dilutions were made in 100% DMSO (VWR Chemicals 23500.297) in a polypropylene plate in 3-fold dilution steps to give a final concentration range in the assay from 12.5 µM to 0.8 pM. 0.25µL compound dilutions (100% DMSO) were added to 9 µL MAGL in assay buffer (50 mM TRIS (GIBCO, 15567-027), 1 mM EDTA (Fluka, 03690-100 mL), 0.01% (v/v) Tween. After shaking, the plate was incubated for 15 min at RT. To start the reaction, 10 µL 2-arachidonoylglycerol in assay buffer was added. The final concentrations in the assay were 50 pM MAGL and 8 µM 2-arachidonoylglyerol. After shaking and 30 min incubation at RT, the reaction was quenched by the addition of 40µL of ACN containing 4µM of d8-arachidonic acid. The amount of arachidonic acid was traced by an online SPE system (Agilent Rapidfire) coupled to a triple quadrupole mass spectrometer (Agilent 6460). A C18 SPE cartridge (G9205A) was used in an ACN/water liquid setup. The mass spectrometer was operated in negative electrospray mode following the mass transitions 303.1 → 259.1 for arachidonic acid and 311.1 → 267.0 for d8-arachidonic acid. The activity of the compounds was calculated based on the ratio of intensities [arachidonic acid / d8-arachidonic acid]. The lowest IC50 value that can be determined with high accuracy is approximately 0.025 nM.

[2] = test system: serine hydrolases in the mouse brain proteome (MBP); assay: Multiplex ABPP in mouse brain proteome; format: biochemical
Procedure: K = [L][P] = 0.5 [L]T (FP50 − 0.5 [L]T) = FP − 0.5 [L] […]
Mouse brain sample preparation
Mouse tissues were isolated according to guidelines approved by the ethical committee of Leiden University. Male mouse brain (27 weeks old) was homogenized with glass beads (2x 1 min, bullet blender, speed 8) using cold lysis buffer (20 mM Hepes pH 7.2, 1 mM MgCl 2, 2 U/mL Benzonase). The membrane and cytosol were separated by centrifugation. The membrane fraction was resuspended in Hepes/DTT buffer. Protein concentration was determined with Bradford Assay, and samples were diluted to a final concentration of 2.0 mg/mL. Samples were snap -frozen in liquid nitrogen and stored at -80 °C until further use.
Lysate (19 µL, 2 µg/µL) was thawed on ice. For comparative ABPP (irreversible probes), 1 µL of probe (20x stock in DMSO) or pure DMSO was added to the sample, vortexed briefly, and in cubated for 30 minutes at RT. For competitive ABPP (reversible probes), 0.5 µL of the reversible probe (40x stock in DMSO) or pure DMSO (as vehicle) was added to the sample, vortexed briefly, and incubated for 30 […]
minutes at RT. Subsequently, 0.5 µL MB064 (40x stock in DMSO) was added to the proteome sample, vortexed briefly, and incubated for 10 minutes at RT, after which 0.5 µL FP-Bodipy-FL (40x stock in DMSO) was added, vortexed briefly and incubated for 10 minutes at RT. The final volume was 20 - 20.5 µL (5 - 7.5% DMSO). The reaction was quenched by the addition of 7.5 µL of 4*Laemmli-buffer (final concentrations: 60 mM Tris (pH 6.8), 2% (w/v) SDS, 10% (v/v) glycerol, 1.25% (v/v) β-mercaptoethanol, 0.01% (v/v) bromophenol blue). 10 µL (14 µg protein) of the quenched reaction mixture was resolved on 10% acrylamide SDS-PAGE (180 V, 75 min). Fluorescence was measured using a Biorad ChemiDoc MP system (fluorescence channels Cy2, Cy3, Cy5). Gels were then stained using coomassie staining and imaged for protein loading control. Labeling of the respective proteins via MB064 and FP-BODIPY was visualized in two separate channels. […]
Activity based protein profiling (ABPP)
PBMCs were thawed, washed with 1 x PBS and equal amounts of cells were exposed to DMSO (D2650; Sigma-Aldrich) or MAGL inhibitor PF (PF-06795071) in DMSO for 30 min at room temperature with concentrations ranging from 1 nM to 1000 nM. Cells were washed with 1 x PBS and lysed in ice -cold lysis buffer (ab156035; Abcam), lysates were centrifuged at 14,000 x g for 15 minutes at 4°C and supernatants were collected. For ABPP experiments, cell lysates containing equal amounts of protein were incubated with the appropriate concentration of activity -based probe for 30 min at room temperature. The reaction was quenched for 30 min by adding SDS -PAGE loading buffer (NP0007, Thermo). Samples were then separated by SDS-PAGE and bands were detected ChemiDoc Imager (Bio-Rad Laboratories). Following detection, gels were stained with SimplyBlue™ SafeStain (LC6060, Thermo) for 1 hour with gentle agitation and excess stain was removed by destaining in ddH2O for 1 h with gentle agitation. Gels were imaged and protein bands were quantified using Image Lab software (Bio-Rad Laboratories).

[3] = biological target: T2, cMAGL (Macaca fascicularis, UniProt A0A2K5V664); assay: Native MS (RapidFire) 2-AG substrate assay, purified cynomolgus monkey MAGL; format: biochemical; settings: purified cynomolgus monkey MAGL, native MS substrate assay; read-out: IC50 cMAGL
T2 sequence (A0A2K5V664 11-297): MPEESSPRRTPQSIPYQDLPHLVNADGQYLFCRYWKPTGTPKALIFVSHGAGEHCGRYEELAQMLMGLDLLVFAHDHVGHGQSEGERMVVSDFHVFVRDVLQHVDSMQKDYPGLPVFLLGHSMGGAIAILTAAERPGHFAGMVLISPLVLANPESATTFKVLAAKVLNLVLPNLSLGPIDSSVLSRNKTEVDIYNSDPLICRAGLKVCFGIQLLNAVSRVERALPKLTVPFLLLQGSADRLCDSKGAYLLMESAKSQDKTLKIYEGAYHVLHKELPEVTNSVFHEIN
Procedure: as §1, §2

[4] = High throughput kinetic solubility measurement; format: physicochemical; settings: phosphate buffer, pH 6.5, aqueous buffer, kinetic from dmso stock
[5] = biological target: T3, mMAGL (Mus musculus, UniProt O35678); assay: Native MS (RapidFire) 2-AG substrate assay, purified mouse MAGL; format: biochemical; settings: purified mouse MAGL, native MS substrate assay; read-out: IC50 mMAGL
T3 sequence (O35678 1-303): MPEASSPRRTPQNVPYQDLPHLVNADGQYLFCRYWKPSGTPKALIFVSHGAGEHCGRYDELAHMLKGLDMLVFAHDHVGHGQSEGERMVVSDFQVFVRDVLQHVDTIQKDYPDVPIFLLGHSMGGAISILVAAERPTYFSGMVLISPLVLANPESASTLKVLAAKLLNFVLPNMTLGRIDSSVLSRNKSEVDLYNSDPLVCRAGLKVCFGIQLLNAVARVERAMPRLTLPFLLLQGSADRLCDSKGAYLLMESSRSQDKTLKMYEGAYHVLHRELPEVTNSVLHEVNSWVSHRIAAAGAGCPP
Procedure: as §1, §2

[6] = biological target: T4, rMAGL (Rattus norvegicus, UniProt Q8R431); assay: Native MS (RapidFire) 2-AG substrate assay, purified rat MAGL; format: biochemical; settings: for loss of potency against rat or cynomolgus monkey orthologs: rat or cynomolgus monkey MAGL
T4 sequence (Q8R431 1-303): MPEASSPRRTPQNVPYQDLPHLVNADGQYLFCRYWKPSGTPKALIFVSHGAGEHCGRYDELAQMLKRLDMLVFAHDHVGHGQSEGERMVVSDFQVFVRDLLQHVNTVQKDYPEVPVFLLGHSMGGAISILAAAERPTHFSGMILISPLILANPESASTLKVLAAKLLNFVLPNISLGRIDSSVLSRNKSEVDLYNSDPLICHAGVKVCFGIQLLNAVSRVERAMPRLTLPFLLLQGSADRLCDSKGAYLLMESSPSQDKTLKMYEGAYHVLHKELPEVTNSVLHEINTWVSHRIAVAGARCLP
Procedure: as §1, §2

[7] = biological target: T5, NanoLuc luciferase MAGL fusion protein (Homo sapiens, UniProt Q99685); assay: Cellular MAGL NanoBRET target engagement assay in live HEK293 cells; format: cell-based; settings: live HEK293 cells; read-out: IC50 nanoBRET
T5 sequence (Q99685 1-303): T1 sequence (Q99685 1-303)
Procedure: This assay was performed as first described before.20
Compounds were profiled by a novel cellular MAGL NanoBRET™ Target Engagement assay, which measures the apparent affinity of test compounds by competitive displacement of a Roche -developed Tracer (WO2021058443, Example 2 121, or probe 4a, respectively), reversibly bound to a NanoLuc ® luciferase MAGL fusion protein in cells.
A HEK293A stable cell line expressing NanoLuc_MAGL was established at Roche and assigned as HEK293A_NanoLuc_MAGL clone #43. A fixed concentration of tracer is added to cells expressing the NanoLuc®_MAGL fusion protein to generate a BRET reporter complex. The introduction of competing compounds results in a dose -dependent decrease in NanoBRET™ energy transfer, which allows quantification of the intracellular affinity of the target protein for the test compound.
HEK293A_NanoLuc_MAGL clone #43 cells were cultured in DMEM (Gibco 31966) with 10% FBS and 800 ug/ml G418. The NanoBRET assay was performed by seeding 5000 cells/well in Costar low - volume white 384-well plate in assay buffer (1% FBS in HBSS), followed by adding the tracer (50 nM Example 21 or 100 nM 4a final concentration) and serial dilutions of test compounds. After 2 hours of incubation, Nanoluciferase substrates and extracellular inhibitors were added following the manufacturer's protocol (Promega, #N2520), and the NanoBRET signaling were quantified with the Paradigm (Molecular Devices).

[8] = test system: rat MAGL; settings: cited from earlier work
[9] = biological target: T1, MAGL; parameters: method as in earlier work; settings: Table S2, literature compounds; ref (1), (6)-(12) as indicated per compound; cited from earlier work
[10] = purified rat MAGL, native MS substrate assay, read-out: IC50 rMAGL

In the case of `O=C(O[C@H](CO)C(F)(F)F)N1CC2(CC(CC3=C4C=CC(c5ccc[nH]5)=[N+]4[B-](F)(F)n4cccc43)C2)C1` [Compound 1a], the IC50 [1] is reported as 0.47 nM, the “labeling selectivity in ABPP (covalent probes)” value ([2]; mouse brain homogenates, broad range of concentrations) is reported as “only selective irreversible labeling of the two MAGL isoforms” and the IC50 [3] is reported as 0.4 nM. The solubility kinetic [4] was less than 0.001 mg/mL, the IC50 [5] was 0.31 nM and the IC50 [6, 10] was 0.44 nM.
With `O=C1NC2(CO1)CN(C(=O)N1CC3(CCC(CC4=C5C=CC=[N+]5[B-](F)(F)n5cccc54)CC3)C1)C2` [Compound 3] the IC50 [1] was 0.83 nM, the IC50 [3] was 3.86 nM and the solubility kinetic [4] was 0.139 mg/mL (≈ 288 µM). For the same molecule, the IC50 [5] was 0.96 nM, the IC50 ([6]; SI Table 1, read-out: IC50 against purified MAGL ± SEM, Rat) was 3.54 ± 0.37 nM and the “loss of potency against rat or cynomolgus monkey orthologs” value [6] was “less than 4 fold”. The IC50 [7] was 557 nM.
In the case of `O=C(N1CC2(CC(CC3=C4C=CC(c5ccc[nH]5)=[N+]4[B-](F)(F)n4cccc43)C2)C1)N1CC2(CC(n3cnc(C4CC4)n3)C2)C1` [Compound 5a], the IC50 [1] is reported as 0.73 nM, the “selectivity in competitive ABPP (reversible probes)” value ([2]; mouse brain proteome, membrane and cytosolic fraction, 1 μM) is reported as “no other potential off-target detectable” and the IC50 [3] is reported as 0.77 nM. For the same molecule, the solubility kinetic [4] was less than 0.0001 mg/mL, the IC50 [5] was 0.9 nM and the IC50 [6, 10] was 2.23 nM. The “loss of potency against rat or cynomolgus monkey orthologs” value [6] was “less than 4 fold”.
For `O=C(Oc1ccc([N+](=O)[O-])cc1)N1CCC(C(O)(c2ccc3c(c2)OCO3)c2ccc3c(c2)OCO3)CC1` [JZL-184], the “potency on rat MAGL” value [8] is given as “severely reduced potency”.
In the case of `CN1/C(=C/C=C/C=C/C2=[N+](CCCCCC(=O)NCc3cn(CCOc4ccc(C(c5ccc(Cl)cc5)N5CCN(C(=O)OC(C(F)(F)F)C(F)(F)F)CC5)cc4)nn3)c3ccccc3C2(C)C)C(C)(C)c2ccccc21` (stereo not shown) [LEI-463], the IC50 [9] is given as roughly 10 nM.
